Values quoted from earlier work in US7407975B2, “Epothilone derivatives, method for producing same and their pharmaceutical use” (priority 1997, dated 2008).

Test system: P-glycoprotein-forming multiresistant tumor lines
Conditions: in comparison to taxol

| SMILES | activity against P-glycoprotein-forming multiresistant tumor lines |
| --- | --- |
| C/C(=C\c1csc(C)n1)[C@@H]1C[C@@H]2O[C@@H]2CCC[C@H](C)[C@H](O)[C@@H](C)C(=O)C(C)(C)[C@@H](O)CC(=O)O1 [Epothilone A, epothilone A] | significantly higher activity |
| C/C(=C\c1csc(C)n1)[C@@H]1C[C@@H]2O[C@]2(C)CCC[C@H](C)[C@H](O)[C@@H](C)C(=O)C(C)(C)[C@@H](O)CC(=O)O1 [Epothilone B, epothilone B] | significantly higher activity |
